Values of other authors as cited in PMC7463651, “Phase I/Ib Study of Tenalisib (RP6530), a Dual PI3K δ/γ Inhibitor in Patients with Relapsed/Refractory T-Cell Lymphoma” (Cancers, 2020).
Where two headings read alike, the source gives them in different places.

Test system: PTCL/CTCL
Design: method as in PMID 21245435, PMID 28641053, PMID 26101246
Conditions: cited from earlier work

Compound: O=C(/C=C/c1cccc(S(=O)(=O)Nc2ccccc2)c1)NO [belinostat]
- Overall response rate (ORR) (FDA approved single agent): 26%

Compound: C#CCC(Cc1cnc2nc(N)nc(N)c2n1)c1ccc(C(=O)N[C@@H](CCC(=O)O)C(=O)O)cc1 (stereo partly shown) [pralatrexate]
- Overall response rate (ORR) (FDA approved single agent): 29%

Compound: C/C=C1\NC(=O)[C@H]2CSSCC/C=C/[C@H](CC(=O)N[C@H](C(C)C)C(=O)N2)OC(=O)[C@H](C(C)C)NC1=O [romidepsin]
- Overall response rate (ORR) (FDA approved single agent): 25%

Compound: brentuximab vedotin
- Overall response rate (ORR) (in CD30+ T-cells): 68%
